Tests used:
Type in all cases: in vivo
[1] = system: oilseed rape (Brassica napus); test: Test C preemergence, plant response rating; conditions: Preemergence
Outline: (§1)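 After sowing in loam–sand blend or silt loam, pots were sprayed preemergence; separately grown 1- to 4-leaf plants were sprayed postemergence. Following 13 to 15 d under greenhouse conditions, injury was rated visually on a 0 to 100 scale.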

[2] = system: soybean (Glycine max); test: Test C preemergence, plant response rating; conditions: Preemergence
Outline: as §1

[3] = system: waterhemp (common waterhemp, Amaranthus rudis); test: Test C preemergence, plant response rating; conditions: Preemergence
Outline: as §1

[4] = system: lambsquarters (Chenopodium album); test: Test C preemergence, plant response rating; conditions: Preemergence
Outline: as §1

[5] = system: foxtail, giant (giant foxtail, Setaria faberii); test: Test C preemergence, plant response rating; conditions: Preemergence
Outline: as §1

[6] = system: corn (Zea mays); test: Test C preemergence, plant response rating; conditions: Preemergence
Outline: as §1

[7] = system: morningglory (Ipomoea coccinea); test: Test C preemergence, plant response rating; conditions: Preemergence
Outline: as §1

[8] = system: blackgrass (Alopecurus myosuroides); test: Test C preemergence, plant response rating; conditions: Preemergence
Outline: as §1

[9] = system: crabgrass, large (large crabgrass, Digitaria sanguinalis); test: Test C preemergence, plant response rating; conditions: Preemergence
Outline: as §1

[10] = system: nutsedge, yellow (yellow nutsedge, Cyperus esculentus); test: Test C preemergence, plant response rating; conditions: Preemergence
Outline: as §1

[11] = system: ryegrass, Italian (Italian ryegrass, Lolium multiflorum); test: Test C preemergence, plant response rating; conditions: Preemergence
Outline: as §1

[12] = system: velvetleaf (Abutilon theophrasti); test: Test C preemergence, plant response rating; conditions: Preemergence
Outline: as §1

[13] = system: wheat (winter wheat, Triticum aestivum); test: Test C preemergence, plant response rating; conditions: Preemergence
Outline: as §1

[14] = system: oilseed rape (Brassica napus); test: Test C postemergence, plant response rating; conditions: for Plant response rating, Oilseed Rape: scale 0 to 100; for Oilseed Rape plant response rating: scale 0 to 100 (0 no effect, 100 complete control)
Outline: as §1

[15] = system: galium (catchweed bedstraw, Galium aparine); test: Test C postemergence, plant response rating; conditions: for Plant response rating, Galium: scale 0 to 100; for Galium plant response rating: scale 0 to 100 (0 no effect, 100 complete control)
Outline: as §1

[16] = system: soybean (Glycine max); test: Test C postemergence, plant response rating; conditions: for Plant response rating, Soybean: scale 0 to 100; for Soybean plant response rating: scale 0 to 100 (0 no effect, 100 complete control)
Outline: as §1

[17] = system: kochia (Kochia scoparia); test: Test C postemergence, plant response rating; conditions: for Plant response rating, Kochia: scale 0 to 100; for Kochia plant response rating: scale 0 to 100 (0 no effect, 100 complete control)
Outline: as §1

[18] = system: waterhemp (common waterhemp, Amaranthus rudis); test: Test C postemergence, plant response rating; conditions: for Plant response rating, Waterhemp: scale 0 to 100; for Waterhemp plant response rating: scale 0 to 100 (0 no effect, 100 complete control)
Outline: as §1

[19] = system: foxtail, giant (giant foxtail, Setaria faberii); test: Test C postemergence, plant response rating; conditions: for Plant response rating, Foxtail, Giant: scale 0 to 100; for Foxtail, Giant plant response rating: scale 0 to 100 (0 no effect, 100 complete control)
Outline: as §1

[20] = system: corn (Zea mays); test: Test C postemergence, plant response rating; conditions: for Plant response rating, Corn: scale 0 to 100; for Corn plant response rating: scale 0 to 100 (0 no effect, 100 complete control)
Outline: as §1

[21] = system: crabgrass, large (large crabgrass, Digitaria sanguinalis); test: Test C postemergence, plant response rating; conditions: for Plant response rating, Crabgrass, Large: scale 0 to 100; for Crabgrass, Large plant response rating: scale 0 to 100 (0 no effect, 100 complete control)
Outline: as §1

## N#Cc1cccc(Oc2ncc(Cl)cn2)c1CCCC(F)(F)F [Compound 72]
[1]; 125 g ai/ha, scale of 0 to 100
  Plant response rating, Oilseed Rape: 100
[1]; 16 g ai/ha, scale 0 to 100
  Plant response rating, Oilseed Rape: 5
[1]; 31 g ai/ha, scale 0 to 100
  Plant response rating, Oilseed Rape: 80
[1]; 62 g ai/ha, scale 0 to 100
  Plant response rating, Oilseed Rape: 80
[2]; 125 g ai/ha, scale of 0 to 100
  Plant response rating, Soybean: 90
[2]; 16 g ai/ha, scale 0 to 100
  Plant response rating, Soybean: 0
[2]; 31 g ai/ha, scale 0 to 100
  Plant response rating, Soybean: 0
[2]; 62 g ai/ha, scale 0 to 100
  Plant response rating, Soybean: 15
[3]; 125 g ai/ha, scale of 0 to 100
  Plant response rating, Waterhemp: 100
[3]; 16 g ai/ha, scale 0 to 100
  Plant response rating, Waterhemp: 100
[3]; 31 g ai/ha, scale 0 to 100
  Plant response rating, Waterhemp: 100
[3]; 62 g ai/ha, scale 0 to 100
  Plant response rating, Waterhemp: 100
[4]; 125 g ai/ha, scale of 0 to 100
  Plant response rating, Lambsquarters: 100
[4]; 16 g ai/ha, scale 0 to 100
  Plant response rating, Lambsquarters: 65
[4]; 31 g ai/ha, scale 0 to 100
  Plant response rating, Lambsquarters: 80
[4]; 62 g ai/ha, scale 0 to 100
  Plant response rating, Lambsquarters: 90
[5]; 62 g ai/ha, scale of 0 to 100
  Plant response rating, Foxtail, Giant: 75
[5]; 125 g ai/ha, scale of 0 to 100
  Plant response rating, Foxtail, Giant: 100
[5]; 16 g ai/ha, scale 0 to 100
  Plant response rating, Foxtail, Giant: 55
[5]; 31 g ai/ha, scale 0 to 100
  Plant response rating, Foxtail, Giant: 80
[6]; 62 g ai/ha, scale of 0 to 100
  Plant response rating, Corn: 20
[6]; 125 g ai/ha, scale of 0 to 100
  Plant response rating, Corn: 60
[6]; 16 g ai/ha, scale 0 to 100
  Plant response rating, Corn: 5
[6]; 31 g ai/ha, scale 0 to 100
  Plant response rating, Corn: 20
[7]; 125 g ai/ha, scale of 0 to 100
  Plant response rating, Morningglory: 95
[7]; 16 g ai/ha, scale 0 to 100
  Plant response rating, Morningglory: 10
[7]; 31 g ai/ha, scale 0 to 100
  Plant response rating, Morningglory: 40
[7]; 62 g ai/ha, scale 0 to 100
  Plant response rating, Morningglory: 55
[8]; 62 g ai/ha, scale of 0 to 100
  Plant response rating, Blackgrass: 98
[8]; 125 g ai/ha, scale of 0 to 100
  Plant response rating, Blackgrass: 100
[8]; 16 g ai/ha, scale 0 to 100
  Plant response rating, Blackgrass: 60
[8]; 31 g ai/ha, scale 0 to 100
  Plant response rating, Blackgrass: 98
[9]; 62 g ai/ha, scale of 0 to 100
  Plant response rating, Crabgrass, Large: 100
[9]; 125 g ai/ha, scale of 0 to 100
  Plant response rating, Crabgrass, Large: 100
[9]; 16 g ai/ha, scale 0 to 100
  Plant response rating, Crabgrass, Large: 100
[9]; 31 g ai/ha, scale 0 to 100
  Plant response rating, Crabgrass, Large: 100
[10]; 125 g ai/ha, scale of 0 to 100
  Plant response rating, Nutsedge, Yellow: 0
[10]; 16 g ai/ha, scale 0 to 100
  Plant response rating, Nutsedge, Yellow: 0
[10]; 31 g ai/ha, scale 0 to 100
  Plant response rating, Nutsedge, Yellow: 0
[10]; 62 g ai/ha, scale 0 to 100
  Plant response rating, Nutsedge, Yellow: 0
[11]; 125 g ai/ha, scale of 0 to 100
  Plant response rating, Ryegrass, Italian: 100
[11]; 16 g ai/ha, scale 0 to 100
  Plant response rating, Ryegrass, Italian: 10
[11]; 31 g ai/ha, scale 0 to 100
  Plant response rating, Ryegrass, Italian: 45
[11]; 62 g ai/ha, scale 0 to 100
  Plant response rating, Ryegrass, Italian: 45
[12]; 125 g ai/ha, scale of 0 to 100
  Plant response rating, Velvetleaf: 100
[12]; 16 g ai/ha, scale 0 to 100
  Plant response rating, Velvetleaf: 10
[12]; 31 g ai/ha, scale 0 to 100
  Plant response rating, Velvetleaf: 60
[12]; 62 g ai/ha, scale 0 to 100
  Plant response rating, Velvetleaf: 55
[13]; 125 g ai/ha, scale of 0 to 100
  Plant response rating, Wheat: 80
[13]; 16 g ai/ha, scale 0 to 100
  Plant response rating, Wheat: 0
[13]; 31 g ai/ha, scale 0 to 100
  Plant response rating, Wheat: 0
[13]; 62 g ai/ha, scale 0 to 100
  Plant response rating, Wheat: 30
[14]; 16 g ai/ha
  Plant response rating, Oilseed Rape: 50
[14]; 31 g ai/ha
  Plant response rating, Oilseed Rape: 60
[14]; 62 g ai/ha
  Oilseed Rape plant response rating: 0
[14]; 125 g ai/ha
  Oilseed Rape plant response rating: 65
[15]; 16 g ai/ha
  Plant response rating, Galium: 80
[15]; 31 g ai/ha
  Plant response rating, Galium: 80
[15]; 62 g ai/ha
  Galium plant response rating: 5
[15]; 125 g ai/ha
  Galium plant response rating: 98
[16]; 16 g ai/ha
  Plant response rating, Soybean: 60
[16]; 31 g ai/ha
  Plant response rating, Soybean: 70
[16]; 62 g ai/ha
  Soybean plant response rating: 40
[16]; 125 g ai/ha
  Soybean plant response rating: 70
[17]; 16 g ai/ha
  Plant response rating, Kochia: 100
[17]; 31 g ai/ha
  Plant response rating, Kochia: 100
[17]; 62 g ai/ha
  Kochia plant response rating: 100
[17]; 125 g ai/ha
  Kochia plant response rating: 100
[18]; 16 g ai/ha
  Plant response rating, Waterhemp: 85
[18]; 31 g ai/ha
  Plant response rating, Waterhemp: 80
[18]; 62 g ai/ha
  Waterhemp plant response rating: 90
[18]; 125 g ai/ha
  Waterhemp plant response rating: 90
[19]; 16 g ai/ha
  Plant response rating, Foxtail, Giant: 30
[19]; 31 g ai/ha
  Plant response rating, Foxtail, Giant: 30
[19]; 62 g ai/ha
  Foxtail, Giant plant response rating: 20
[19]; 125 g ai/ha
  Foxtail, Giant plant response rating: 20
[20]; 16 g ai/ha
  Plant response rating, Corn: 10
[20]; 31 g ai/ha
  Plant response rating, Corn: 15
[20]; 62 g ai/ha
  Corn plant response rating: 10
[20]; 125 g ai/ha
  Corn plant response rating: 20
[21]; 16 g ai/ha
  Plant response rating, Crabgrass, Large: 10
[21]; 31 g ai/ha
  Plant response rating, Crabgrass, Large: 10
[21]; 62 g ai/ha
  Crabgrass, Large plant response rating: 10
[21]; 125 g ai/ha
  Crabgrass, Large plant response rating: 50
